For one assay, the system named is MCF-7 cells. As to the kind of experiment: In vitro test of cell activity (MCF-7 cells, insulin stimulation, ELISA-One fluorescence). Format: cell-based. The conditions noted are these: Homo sapiens, MCF7, MCF-7 cells; for inhibition at 1 µM: conc. 1 μM; for inhibition at 0.5 µM: conc. 0.5 μM. Summed up:
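Fluorescence ELISA-One read-out on cell lysates, antibody-captured 1 h at room temperature. Before lysis, MCF-7 cells (2.5×10^4/well) were pretreated 2 h with compound in serum-free medium, single dose for screening or a dilution series for IC50, then stimulated 30 min with insulin ([…] final).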

In the next assay the target is T1, PI3K (p110α) kinase (Homo sapiens, UniProt P42336).
T1 construct: made in house
T1 sequence (P42336 whole entry): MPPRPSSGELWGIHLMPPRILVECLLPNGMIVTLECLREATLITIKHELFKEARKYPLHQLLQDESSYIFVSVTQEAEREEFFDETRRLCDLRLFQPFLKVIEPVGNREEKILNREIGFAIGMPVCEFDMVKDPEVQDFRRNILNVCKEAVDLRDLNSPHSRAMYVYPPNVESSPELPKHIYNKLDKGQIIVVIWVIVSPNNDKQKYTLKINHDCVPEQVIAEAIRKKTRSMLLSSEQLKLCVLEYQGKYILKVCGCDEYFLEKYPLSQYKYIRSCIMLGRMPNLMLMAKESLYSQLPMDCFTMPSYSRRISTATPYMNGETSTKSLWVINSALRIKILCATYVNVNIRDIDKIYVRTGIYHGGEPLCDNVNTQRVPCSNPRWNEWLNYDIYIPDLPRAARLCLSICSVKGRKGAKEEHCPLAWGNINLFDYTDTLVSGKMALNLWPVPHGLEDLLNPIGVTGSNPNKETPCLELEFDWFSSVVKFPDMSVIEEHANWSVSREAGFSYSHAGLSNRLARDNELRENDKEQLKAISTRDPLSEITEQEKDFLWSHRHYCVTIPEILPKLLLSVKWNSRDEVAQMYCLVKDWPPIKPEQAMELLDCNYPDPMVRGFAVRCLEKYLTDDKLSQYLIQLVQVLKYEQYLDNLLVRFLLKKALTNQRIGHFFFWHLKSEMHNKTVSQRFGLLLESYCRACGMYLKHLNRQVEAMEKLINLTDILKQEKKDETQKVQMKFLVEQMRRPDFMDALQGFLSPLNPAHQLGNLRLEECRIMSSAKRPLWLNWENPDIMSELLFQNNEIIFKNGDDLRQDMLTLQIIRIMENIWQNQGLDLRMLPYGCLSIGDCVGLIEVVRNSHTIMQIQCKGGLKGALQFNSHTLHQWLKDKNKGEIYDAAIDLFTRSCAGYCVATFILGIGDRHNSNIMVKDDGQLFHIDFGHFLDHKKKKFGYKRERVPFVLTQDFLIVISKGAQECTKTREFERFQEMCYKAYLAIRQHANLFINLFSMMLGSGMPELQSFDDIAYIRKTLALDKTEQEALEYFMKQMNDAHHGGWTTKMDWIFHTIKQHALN
As to the kind of experiment: PI3K (p110α) kinase assay (PI3K HTRF Assay). The conditions noted are these: in vitro enzyme activity assay, 10 μM PIP2, read-out: PI3K (p110α) enzyme activity_IC50. The format is biochemical. From the text: Conclusion: The compounds of the present invention have significant inhibitory effect on mTOR/PI3K. Example In Vitro Enzyme Activity Assay 1. The experimental procedures and methods of PI3K (p110α) kinase assay: 1) Experimental Objective
The objective was to evaluate the inhibitory effect of the subject samples on PI3K (p110α) kinase activity at molecular level.
PerkinElmer Envision 2104 Multilabel Reader.
PI 3-Kinase HTRF Assay (384 wells) was purchased from Upstate (Millipore) company: PI3K (p110α) kinase was made in our lab.
c) Experimental procedures
Each solution was prepared according to the instructions provided in the Kinase PI 3-Kinase HTRF Assay. The kinase reaction was carried out in white 384-well plates (Proxiplate-384 plus), 0.5 μl of DMSO (the concentration was consistent with the highest concentration of DMSO for the test compounds) was added to each of the two control wells with and without enzyme, and then 0.5 μl of a series of different concentrations of the test compounds was added to each well to be tested. The kinase reaction liquid (10 μM substrate PIP2, 0.5 ng PI3K (p110α)) was added to the control well containing enzyme and the test wells, while only working reaction liquid (10 μM substrate PIP2) was added to the control well without enzyme, and finally, 5 μM ATP working reaction liquid was added to activate the reaction. After the reaction was carried out at room temperature for 30 min, the stop solution was added to each well to terminate the kinase reaction. After the mixture was fully mixed, the detection liquid was added to each well and fully mixed. The plate was sealed with Parafilm and placed in the dark. After incubated overnight, the mixture was detected.
The IC50 value was calculated through the GraphPad software after plotting the relative inhibitory rate versus concentration.
In general terms: TR-FRET usually uses a lanthanide donor and a delayed reading to cut background.

Where two headings read alike, the source gives them in different places.

Usually inhibition stands for the change of the read-out against control, counted positive when it falls.

Consider `COc1ncc(-c2ccc3ncc(OCC4COC4)c(=O)n3c2)cc1NS(=O)(=O)c1c(Cl)cccc1Cl` [compound 249], for which the figures for the IC50 with MCF-7 cells (read-out: IC50 p-AKT) and at PI3K (p110α) kinase were ≤ 0.05 µM and ≤ 0.001 µM, respectively.

Turning to `COc1ncc(-c2ccc3ncc(OCC4COC4)c(=O)n3c2)cc1NS(=O)(=O)c1ccc(C)cc1Cl` [compound 277], the IC50 in the assay with MCF-7 cells (read-out: IC50 p-AKT) is ≤ 0.05 µM; at PI3K (p110α) kinase, ≤ 0.001 µM.

`COc1ncc(-c2ccc3ncc(OCCOCC(F)(F)F)c(=O)n3c2)cc1NS(=O)(=O)c1ccc(F)cc1Cl` [compound 242]: the results for the IC50 in the assay on MCF-7 cells (read-out: IC50 p-AKT) and at PI3K (p110α) kinase were 0.1 to 0.25 µM and ≤ 0.001 µM, respectively.

As to `COCCOc1cnc2ccc(-c3cnc(OC)c(NS(=O)(=O)c4c(C)cc(C)cc4C)c3)cn2c1=O` [compound 268], the IC50 with MCF-7 cells (read-out: IC50 p-AKT) fell in the range of 0.1 to 0.25 µM; on PI3K (p110α) kinase, 0.001 to 0.01 µM.

For the molecule `COCCOc1cnc2ccc(-c3cnc(OC)c(NS(=O)(=O)c4cccc(C)c4)c3)cn2c1=O` [compound 247], the IC50 was 0.1 to 0.25 µM in the assay with MCF-7 cells (read-out: IC50 p-AKT) and ≤ 0.001 µM at PI3K (p110α) kinase.

For `COc1ncc(-c2ccc3ncc(OCC4COC4)c(=O)n3c2)cc1NS(=O)(=O)c1ccc(F)c(F)c1` [compound 250], the values for the IC50 in the assay on MCF-7 cells (read-out: IC50 p-AKT) and on PI3K (p110α) kinase were 0.05 to 0.1 µM and ≤ 0.001 µM, respectively.

On to `COCCOc1cnc2ccc(-c3cnc(OC)c(NS(=O)(=O)c4ccccc4Cl)c3)cn2c1=O` [compound 253], for which the IC50 in the assay with MCF-7 cells (read-out: IC50 p-AKT) is ≤ 0.05 µM; on PI3K (p110α) kinase, ≤ 0.001 µM.

As to `COCCOc1cnc2ccc(-c3cnc(OC)c(NS(=O)(=O)c4ccc(Cl)cc4F)c3)cn2c1=O` [compound 271], the IC50 with MCF-7 cells (read-out: IC50 p-AKT) was 0.05 to 0.1 µM; on PI3K (p110α) kinase, ≤ 0.001 µM.

On to `COCCOc1cnc2ccc(-c3cnc(OC)c(NS(=O)(=O)c4c(Cl)cccc4Cl)c3)cn2c1=O` [compound 245], for which the results for the IC50 in the assay with MCF-7 cells (read-out: IC50 p-AKT) and on PI3K (p110α) kinase were ≤ 0.05 µM and ≤ 0.001 µM, respectively.

Regarding `COCCOc1cnc2ccc(-c3cnc(OC)c(NS(=O)(=O)c4ccc(F)c(F)c4)c3)cn2c1=O` [compound 246], the IC50 is 0.1 to 0.25 µM in the assay on MCF-7 cells (read-out: IC50 p-AKT) and ≤ 0.001 µM on PI3K (p110α) kinase.

On to `COCCOc1cnc2ccc(-c3cnc(OC)c(NS(=O)(=O)c4cnc(C)cc4C)c3)cn2c1=O` [compound 282], for which the IC50 at PI3K (p110α) kinase was ≤ 0.001 µM.

In the case of `COCCOc1cnc2ccc(-c3cnc(OC)c(NS(=O)(=O)c4cccc(Cl)c4C)c3)cn2c1=O` [compound 261], the IC50 was 0.05 to 0.1 µM in the assay with MCF-7 cells (read-out: IC50 p-AKT) and ≤ 0.001 µM on PI3K (p110α) kinase.

On to `COCCOc1cnc2ccc(-c3cnc(OC)c(NS(=O)(=O)c4cc(F)ccc4C)c3)cn2c1=O` [compound 260], for which the figures for the IC50 with MCF-7 cells (read-out: IC50 p-AKT) and at PI3K (p110α) kinase were 0.1 to 0.25 µM and ≤ 0.001 µM, respectively.

Regarding `COc1ncc(-c2ccc3ncc(OCC4COC4)c(=O)n3c2)cc1NS(=O)(=O)c1ccc(F)cc1C` [compound 255], the IC50 in the assay with MCF-7 cells (read-out: IC50 p-AKT) was 0.1 to 0.25 µM; at PI3K (p110α) kinase, ≤ 0.001 µM.

Take `COCCOc1cnc2ccc(-c3cnc(OC)c(NS(=O)(=O)c4ccc(C)cc4Cl)c3)cn2c1=O` [compound 275]: the IC50 was ≤ 0.05 µM in the assay with MCF-7 cells (read-out: IC50 p-AKT) and ≤ 0.001 µM at PI3K (p110α) kinase.

Consider `COCCOc1cnc2ccc(-c3cnc(OC)c(NS(=O)(=O)c4ccc(Cl)cc4Cl)c3)cn2c1=O` [compound 263], for which the IC50 is 0.05 to 0.1 µM in the assay with MCF-7 cells (read-out: IC50 p-AKT) and ≤ 0.001 µM at PI3K (p110α) kinase.

Turning to `COCCOc1cnc2ccc(-c3cnc(OC)c(NS(=O)(=O)c4cc(C)c(Cl)cc4Cl)c3)cn2c1=O` [compound 258], the IC50 on PI3K (p110α) kinase was 0.001 to 0.01 µM.

As to `COc1ncc(-c2ccc3ncc(OCC4COC4)c(=O)n3c2)cc1NS(=O)(=O)c1ccccc1Cl` [compound 257], the values for the IC50 with MCF-7 cells (read-out: IC50 p-AKT) and on PI3K (p110α) kinase were ≤ 0.05 µM and ≤ 0.001 µM, respectively.

For `COCCOc1cnc2ccc(-c3cnc(OC)c(NS(=O)(=O)c4cc(C)c(Cl)cc4F)c3)cn2c1=O` [compound 269], on PI3K (p110α) kinase, the IC50 lay within 0.001 to 0.01 µM.

On to `COc1ncc(-c2ccc3ncc(OCC4COC4)c(=O)n3c2)cc1NS(=O)(=O)c1ccc(C)cc1C` [compound 251], for which the IC50 with MCF-7 cells (read-out: IC50 p-AKT) was 0.1 to 0.25 µM; on PI3K (p110α) kinase, ≤ 0.001 µM.

Regarding `COCCOc1cnc2ccc(-c3cnc(OC)c(NS(=O)(=O)n4nc(C)cc4C)c3)cn2c1=O` [compound 283], at PI3K (p110α) kinase, the IC50 was 0.001 to 0.01 µM.

Turning to `COCCOc1cnc2ccc(-c3cnc(OC)c(NS(=O)(=O)c4ccc(F)cc4C)c3)cn2c1=O` [compound 252], the IC50 in the assay with MCF-7 cells (read-out: IC50 p-AKT) is > 0.25 µM; on PI3K (p110α) kinase, 0.001 to 0.01 µM.

As to `COCCOc1cnc2ccc(-c3cnc(OC)c(NS(=O)(=O)c4c(F)cccc4F)c3)cn2c1=O` [compound 265], the IC50 is 0.1 to 0.25 µM with MCF-7 cells (read-out: IC50 p-AKT) and ≤ 0.001 µM on PI3K (p110α) kinase.

For the molecule `COCCOc1cnc2ccc(-c3cnc(OC)c(NS(=O)(=O)c4ccc(C)cc4C)c3)cn2c1=O` [compound 244], the IC50 was 0.05 to 0.1 µM in the assay with MCF-7 cells (read-out: IC50 p-AKT) and ≤ 0.001 µM on PI3K (p110α) kinase.

For `O=c1ccnc2ccc(-c3cnc(Cl)c(NS(=O)(=O)c4ccc(F)cc4F)c3)cn12` [compound 16], the inhibition at 1 µM worked out at 91.6% in the assay with MCF-7 cells (read-out: % inhibition AKT) and 75.1% with MCF-7 cells (read-out: % inhibition p70s6k). Further, the IC50 in the assay on MCF-7 cells (read-out: IC50 p-AKT) was ≤ 0.05 µM; with MCF-7 cells (read-out: IC50 p-p70S6K) it was > 0.25 µM.

`COc1ncc(-c2cn3c(=O)ccnc3cn2)cc1NS(=O)(=O)c1ccccc1F` [compound 44]: the results for the inhibition at 0.5 µM in the assay on MCF-7 cells (read-out: % inhibition AKT) and in the assay on MCF-7 cells (read-out: % inhibition p70s6k) were 6.3% and 4.7%, respectively.

On to `COCCNc1cnc2ccc(-c3cnc(OC)c(NS(=O)(=O)c4sc(C)nc4C)c3)cn2c1=O` [compound 99], for which the IC50 in the assay on MCF-7 cells (read-out: IC50 p-AKT) was ≤ 0.05 µM.

As for `COc1ncc(-c2ccc3nccc(=O)n3n2)cc1NS(=O)(=O)c1c(F)cccc1F` [compound 73], the values for the inhibition at 0.5 µM with MCF-7 cells (read-out: % inhibition AKT) and in the assay with MCF-7 cells (read-out: % inhibition p70s6k) were 40.5% and -2.1%, respectively.

Regarding `COc1ncc(-c2ccc3ncc(Cl)c(=O)n3c2)cc1NS(=O)(=O)c1sccc1C` [compound 143], the figures for the inhibition at 0.5 µM in the assay with MCF-7 cells (read-out: % inhibition AKT) and with MCF-7 cells (read-out: % inhibition p70s6k) were 95.7% and 87.7%, respectively. Also, the IC50 with MCF-7 cells (read-out: IC50 p-AKT) and with MCF-7 cells (read-out: IC50 p-p70S6K) was ≤ 0.05 µM in each case.

Regarding `CCc1ncc(-c2ccc3nccc(=O)n3c2)cc1NS(=O)(=O)c1ccccc1F` [compound 17], the inhibition at 1 µM in the assay on MCF-7 cells (read-out: % inhibition AKT) was 81.1%; in the assay on MCF-7 cells (read-out: % inhibition p70s6k), 34.1%.

With `COCCOc1cnc2ccc(-c3cnc(OC)c(NS(=O)(=O)c4ccc(F)cc4C4CC4)c3)cn2c1=O` [compound 284], the IC50 on PI3K (p110α) kinase was 0.001 to 0.01 µM.

On to `O=c1ccnc2ccc(-c3cnc(Cl)c(NS(=O)(=O)N4CCOCC4)c3)cn12` [compound 31], for which the inhibition at 1 µM with MCF-7 cells (read-out: % inhibition AKT) stood at 67.8%; with MCF-7 cells (read-out: % inhibition p70s6k) it was 45.5%.

With `COc1ncc(-c2cn3c(=O)ccnc3cn2)cc1NS(=O)(=O)c1cccc(F)c1` [compound 42], the inhibition at 0.5 µM with MCF-7 cells (read-out: % inhibition AKT) is 9.1%; in the assay with MCF-7 cells (read-out: % inhibition p70s6k) it was 5.1%.

Take `COc1ncc(-c2cn3c(=O)ccnc3cc2C)cc1NS(=O)(=O)c1ccc(F)cc1F` [compound 121, 2,4-difluoro-N-(2-methoxy-5-(8-methyl-4-oxo-4H-pyrido[1,2-a]pyrimidin-7-yl)pyridin-3-yl)benzsulfamide]: the figures for the inhibition at 0.5 µM with MCF-7 cells (read-out: % inhibition AKT) and with MCF-7 cells (read-out: % inhibition p70s6k) were -27.1% and -2.2%, respectively.

On to `COc1ncc(-c2ccc3nccc(=O)n3c2)cc1NS(=O)(=O)c1cnc2ccccc2c1` [compound 38], for which the inhibition at 0.5 µM was determined as 91.5% in the assay on MCF-7 cells (read-out: % inhibition AKT) and 79.4% with MCF-7 cells (read-out: % inhibition p70s6k). Further, the IC50 was ≤ 0.05 µM in the assay on MCF-7 cells (read-out: IC50 p-AKT) and > 0.25 µM in the assay on MCF-7 cells (read-out: IC50 p-p70S6K).

For `CCc1ccc(S(=O)(=O)Nc2cc(-c3ccc4ncc(OCCOC)c(=O)n4c3)cnc2OC)c(F)c1` [compound 281], the IC50 in the assay on MCF-7 cells (read-out: IC50 p-AKT) was ≤ 0.05 µM.

As to `COc1ncc(-c2ccc3nccc(=O)n3c2)cc1NS(=O)(=O)c1ccc(C)s1` [compound 35], the inhibition at 0.5 µM came out at 93.3% in the assay with MCF-7 cells (read-out: % inhibition AKT) and 86% in the assay on MCF-7 cells (read-out: % inhibition p70s6k). Moreover, the IC50 in the assay on MCF-7 cells (read-out: IC50 p-AKT) and with MCF-7 cells (read-out: IC50 p-p70S6K) was ≤ 0.05 µM throughout.
